Laboratory results: patent US20050118224A1, “Edible pesticidal formulations” (priority 2001, published 2005)

Assay: Chlorpyrifos loss from liquid blends with oleophilic phase candidates, 70° C. for 70 h
Format: physicochemical
Conditions: 1.2 g chlorpyrifos in 9 g candidate, on aluminium foil
Experimental: 1.2 g of chlorpyrifos was added to 9 g of each alternative oleophilic candidate (see Table 14). 1.02 g of this liquid blend was then placed onto aluminium foil within a glass Petrie dish. The control was molten chlorpyrifos alone. Samples were then placed in a fan forced oven at 70° C. for 70 h before being removed and analysed for chlorpyrifos content.

## CCOP(=S)(OCC)Oc1nc(Cl)c(Cl)cc1Cl [No oleophilic phase, chlorpyrifos]
  Chlorpyrifos loss (%): 37%
